In PubChem BioAssay AID200 (DTP/NCI, 2004):
Values joined by “and” are separate entries in the source; they are usually repeats but may differ in a detail not shown here. Equal entries are not always repeated. Inconclusive results and toxic doses are left out. Rule for the calls: active = survival T/C of 150% or more; inactive = T/C below 125% in these data.

System: B6C3F1 mice, B16 melanoma ip, median survival T/C
Experiment: NCI In Vivo Anticancer Drug Screen. Data for tumor model B16 Melanoma (intraperitoneal) in B6C3F1 mice
Conditions: endpoint: median survival time, higher = longer survival
Summary of the method: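 Readout: survival or tumor size in treated mice relative to vehicle controls (T/C). Model uses transplantable tumors grown in mice.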

[1] = dose: 6.25 mg/kg/injection, schedule: Q01DX009 (ip), vehicle: saline with Tween-80
[2] = dose: 12.5 mg/kg/injection, schedule: Q01DX009 (ip), vehicle: saline with Tween-80
[3] = dose: 3.12 mg/kg/injection, schedule: Q01DX009 (ip), vehicle: saline with Tween-80
[4] = dose: 100.0 mg/kg/injection, schedule: Q01DX009 (ip), vehicle: Klucel (hydroxypropylcellulose) (HPC)
[5] = dose: 200.0 mg/kg/injection, schedule: Q01DX009 (ip), vehicle: Klucel (hydroxypropylcellulose) (HPC)
[6] = dose: 400.0 mg/kg/injection, schedule: Q01DX009 (ip), vehicle: Klucel (hydroxypropylcellulose) (HPC)
[7] = dose: 1.25 mg/kg/injection, schedule: Q01DX009 (ip), vehicle: saline with Tween-80
[8] = dose: 50.0 mg/kg/injection, schedule: Q01DX009 (ip), vehicle: saline with Tween-80

Measured: T/C

CCCCCCCC1C(=O)OC2CC3C(C)=CC(=O)C(O)C3(C)C3C4(O)OCC23C1C(C)C4O (stereo not given)
114 % of control and 250 % of control: dose: 10.0 mg/kg/injection, schedule: Q01DX009 (ip), vehicle: Klucel (hydroxypropylcellulose) (HPC)
active: dose: 1.25 mg/kg/injection, schedule: Q01DX009 (ip), vehicle: Klucel (hydroxypropylcellulose) (HPC) 156 % of control | dose: 20.0 mg/kg/injection, schedule: Q01DX009 (ip), vehicle: Klucel (hydroxypropylcellulose) (HPC) 162 % of control
inactive: dose: 2.5 mg/kg/injection, schedule: Q01DX009 (ip), vehicle: Klucel (hydroxypropylcellulose) (HPC) 110 % of control and 91 % of control | dose: 5.0 mg/kg/injection, schedule: Q01DX009 (ip), vehicle: Klucel (hydroxypropylcellulose) (HPC) 118 % of control and 97 % of control

c1ccc2c(c1)-c1ccccc1C1NC21 (stereo not given)
inactive: [1] 103 % of control | [2] 112 % of control

OC1COC(c2ccccc2)OC1C1OC(c2ccccc2)OC2COC(c3ccccc3)OC21 (stereo not given)
inactive: [3] 93 % of control | [1] 93 % of control | [2] 91 % of control

CC(C)(OC(=O)NC(CC(N)=O)C(=O)O)c1ccc(-c2ccccc2)cc1 (stereo not given)
inactive: [4] 97 % of control | [5] 91 % of control | [6] 89 % of control

Cc1c2ccnc(C(N)=O)c2c(C)c2c1[nH]c1ccccc12
inactive: dose: 62.0 mg/kg/injection, schedule: Q04DX003 (ip), vehicle: distilled water + Tween-80 96 % of control | dose: 125.0 mg/kg/injection, schedule: Q04DX003 (ip), vehicle: distilled water + Tween-80 120 % of control | dose: 200.0 mg/kg/injection, schedule: Q01DX009 (ip), vehicle: distilled water + Tween-80 117 % of control | dose: 250.0 mg/kg/injection, schedule: Q04DX003 (ip), vehicle: distilled water + Tween-80 106 % of control | dose: 400.0 mg/kg/injection, schedule: Q01DX009 (ip), vehicle: distilled water + Tween-80 123 % of control | dose: 500.0 mg/kg/injection, schedule: Q04DX003 (ip), vehicle: distilled water + Tween-80 100 % of control | dose: 1000.0 mg/kg/injection, schedule: Q04DX003 (ip), vehicle: distilled water + Tween-80 124 % of control

C=C(C)C(=O)N(C)C(C)C(=O)OC1CC(=O)N(C)c2cc(cc(OC)c2Cl)C(OC)C(C)=C/C=C/C(OC)C2(O)CC(OC(=O)N2)C(C)C2OC12C (stereo not given)
active: dose: 8.0 micrograms/kg/injection, schedule: Q01DX009 (ip), vehicle: saline 169 % of control | dose: 16.0 micrograms/kg/injection, schedule: Q01DX009 (ip), vehicle: saline 182 % of control | dose: 32.0 micrograms/kg/injection, schedule: Q01DX009 (ip), vehicle: saline 180 % of control

CN=C(N)NCCCCCCCCNC(N)=NC
inactive: [1] 102 % of control | [2] 98 % of control

Cc1cc([NH-])c([NH-])cc1C.[Cl][Pt+2][Cl]
inactive: [7] 112 % of control
active: dose: 10.0 mg/kg/injection, schedule: Q01DX009 (ip), vehicle: saline with Tween-80 161 % of control

C1OC1CN1CCN(CC2CO2)CC1 (stereo not given)
inactive: dose: 4.0 mg/kg/injection, schedule: Q01DX009 (ip), vehicle: saline with Tween-80 103 % of control | dose: 16.0 mg/kg/injection, schedule: Q01DX009 (ip), vehicle: saline with Tween-80 110 % of control

COC(=O)[C@@]12OC[C@]34[C@H]([C@@H](O)[C@@H]1O)[C@@]1(C)CC(=O)C(O)=C(C)[C@@H]1C[C@H]3OC(=O)[C@H](OC(=O)/C=C(/C)C(C)(C)O)[C@@H]24
inactive: dose: 0.25 mg/kg/injection, schedule: Q01DX009 (ip), vehicle: saline + alcohol 104 % of control | dose: 0.5 mg/kg/injection, schedule: Q01DX009 (ip), vehicle: saline + alcohol 110 % of control and 117 % of control | dose: 1.0 mg/kg/injection, schedule: Q01DX009 (ip), vehicle: saline + alcohol 119 % of control

COc1cccc2c1C(=O)c1c(O)c3c(c(O)c1C2=O)C[C@@](O)(C(C)=O)C[C@@H]3OC1CC(N2CCCCC2)C(O)C(C)O1 (stereo not given in full)
inactive: dose: 0.78 mg/kg/injection, schedule: Q01DX001 (ip), vehicle: water 105 % of control | dose: 1.56 mg/kg/injection, schedule: Q01DX001 (ip), vehicle: water 115 % of control and 121 % of control | dose: 3.12 mg/kg/injection, schedule: Q01DX001 (ip), vehicle: water 116 % of control and 121 % of control

CCN1C[C@]2(COC)[C@H](O)C[C@H](OC)[C@]34C1[C@H]([C@H](OC)[C@H]23)[C@]1(OC(C)=O)[C@H]2[C@@H](OC(=O)c3ccccc3)[C@](O)(C[C@H]24)[C@@H](OC)[C@@H]1O
inactive: dose: 7.5 micrograms/kg/injection, schedule: Q01DX009 (ip), vehicle: saline 118 % of control | dose: 15.0 micrograms/kg/injection, schedule: Q01DX009 (ip), vehicle: saline 115 % of control | dose: 30.0 micrograms/kg/injection, schedule: Q01DX009 (ip), vehicle: saline 99 % of control | dose: 60.0 micrograms/kg/injection, schedule: Q01DX009 (ip), vehicle: saline 122 % of control

COc1cc(OC)c(NC(=O)ON2C(=O)c3ccccc3C2=O)cc1Cl
inactive: [3] 98 % of control | [1] 104 % of control | [2] 104 % of control | dose: 25.0 mg/kg/injection, schedule: Q01DX009 (ip), vehicle: saline with Tween-80 96 % of control | [8] 87 % of control

COc1cc(C)c(C2NC(=O)c3ccccc3N2)cc1C (stereo not given)
inactive: dose: 50.0 mg/kg/injection, schedule: Q01DX009 (ip), vehicle: Klucel (hydroxypropylcellulose) (HPC) 111 % of control and 120 % of control | [4] 115 % of control and 105 % of control | [5] 111 % of control | [6] 112 % of control | dose: 800.0 mg/kg/injection, schedule: Q01DX009 (ip), vehicle: Klucel (hydroxypropylcellulose) (HPC) 107 % of control

COCCCNC1=C(C#N)C(=O)NC(c2cccc([N+](=O)[O-])c2)S1 (stereo not given)
inactive: dose: 3.13 mg/kg/injection, schedule: Q01DX009 (ip), vehicle: saline with Tween-80 112 % of control and 98 % of control | [1] 91 % of control and 96 % of control | [8] 94 % of control and 101 % of control (2×) | dose: 100.0 mg/kg/injection, schedule: Q01DX009 (ip), vehicle: saline with Tween-80 111 % of control and 98 % of control | dose: 200.0 mg/kg/injection, schedule: Q01DX009 (ip), vehicle: saline with Tween-80 111 % of control | dose: 400.0 mg/kg/injection, schedule: Q01DX009 (ip), vehicle: saline with Tween-80 87 % of control

Nc1ncnc2c1nnn2C1OC(CO)C(O)C1O (stereo not given)
inactive: dose: 6.0 mg/kg/injection, schedule: Q01DX009 (ip), vehicle: Klucel (hydroxypropylcellulose) (HPC) 113 % of control | dose: 12.0 mg/kg/injection, schedule: Q01DX009 (ip), vehicle: Klucel (hydroxypropylcellulose) (HPC) 115 % of control
active: dose: 25.0 mg/kg/injection, schedule: Q01DX009 (ip), vehicle: Klucel (hydroxypropylcellulose) (HPC) 176 % of control

O=C1C=C(N2CC2)C(=O)C(N2CC2)=C1N1CC1
inactive: dose: 6.25 micrograms/kg/injection, schedule: Q01DX009 (ip), vehicle: saline 111 % of control | dose: 12.5 micrograms/kg/injection, schedule: Q01DX009 (ip), vehicle: saline 95 % of control | dose: 25.0 micrograms/kg/injection, schedule: Q01DX009 (ip), vehicle: saline 113 % of control
active: dose: 50.0 micrograms/kg/injection, schedule: Q01DX009 (ip), vehicle: saline 165 % of control | dose: 100.0 micrograms/kg/injection, schedule: Q01DX009 (ip), vehicle: saline 157 % of control

Cc1nc(N)nc(N)c1-c1ccc(Cl)c(Cl)c1
inactive: dose: 0.31 mg/kg/injection, schedule: Q01DX009 (ip), vehicle: saline with Tween-80 102 % of control | dose: 0.62 mg/kg/injection, schedule: Q01DX009 (ip), vehicle: saline 116 % of control | dose: 0.63 mg/kg/injection, schedule: Q01DX009 (ip), vehicle: saline with Tween-80 104 % of control | [7] 102 % of control | dose: 1.25 mg/kg/injection, schedule: Q01DX009 (ip), vehicle: saline 101 % of control and 102 % of control | dose: 2.5 mg/kg/injection, schedule: Q01DX009 (ip), vehicle: saline with Tween-80 113 % of control | dose: 2.5 mg/kg/injection, schedule: Q01DX009 (ip), vehicle: saline 116 % of control
